How the values were obtained:
[1] = target: T1, thrombin receptor (PAR-1) (Homo sapiens, UniProt P25116); experiment: In vitro thrombin receptor binding assay (CHRF membranes); conditions: tritiated 721-40 radioligand, read-out: Bndg IC50 (Thrombin receptor binding)
T1 construct: CHRF membranes (Jones, Biochim. Biophys. Acta 1992, 1136, 272) are thawed from −70° C; endogenous in cells; host or cells: CHRF cell membranes
T1 sequence (P25116 22-425): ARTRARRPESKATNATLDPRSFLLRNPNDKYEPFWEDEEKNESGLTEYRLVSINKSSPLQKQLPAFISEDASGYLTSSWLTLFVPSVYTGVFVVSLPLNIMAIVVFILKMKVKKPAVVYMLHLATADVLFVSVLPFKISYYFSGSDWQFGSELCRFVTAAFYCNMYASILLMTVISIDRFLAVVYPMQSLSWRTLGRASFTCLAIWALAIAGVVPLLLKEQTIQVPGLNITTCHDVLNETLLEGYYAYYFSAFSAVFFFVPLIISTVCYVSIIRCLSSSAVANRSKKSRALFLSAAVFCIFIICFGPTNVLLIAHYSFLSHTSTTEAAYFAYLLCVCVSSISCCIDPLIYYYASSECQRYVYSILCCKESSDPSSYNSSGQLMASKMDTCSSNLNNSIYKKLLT
Protocol: In Vitro Thrombin Receptor Binding Assay
CHRF membranes (Jones, Biochim. Biophys. Acta 1992, 1136, 272) are thawed from −70° C., centrifuged at maximum speed for 5 min, washed twice with binding buffer (50 mM HEPES containing 5 mM MgCl2 and 0.1% BSA), and re-suspended in binding buffer (25 μg/[…]). 100 μL of membranes are added to the 24-Wallac plates and delivered to the Tomtech apparatus. In a typical experiment, 6 μL of samples (from a 125 μg/mL intermediary plate, 20% DMSO) and 44 μL buffer are delivered to the plates (final conc. of compounds is 3.7 μg/mL, 0.6% DMSO). Similarly, 6 μL 20% DMSO and 44 μL buffer are delivered to both column 1 (NSB) and column 12 (TB). 10 μL Ser-pFPhe-Har-Leu-Har-Lys-Tyr-NH2 (721–40; 500 μM in deionized water) is added to column 1. 50 μL tritiated 721–40 (specific activity 46 Ci/mmol) is added to all the wells. The plates are mixed well for 20 seconds, incubated for 30 min,and then harvested with 10 mM HEPES/138 mM NaCl using the Skatron harvester. The filters (GF/C Brandel FPXLR 296) are presoaked 3 h in 0.5% polyethylenimine in HEPES/0.1M N-acetylglucosamine) are set in saran wrap and dried for 3 min in the microwave, and placed in sample bags (Wallac 1450-432). 4.5 mL scintillation fluid (Wallac, Betaplate Scint 1205-440) is added. The bags are sealed, placed in filter cassettes (Wallac 1450-104), and analyzed on the microbeta counter.
(§1) Table 7 contains IC50 values (μM) of the compounds in a thrombin receptor binding assay, and IC50 values (μM) against platelet aggregation stimulated by thrombin.

gel-filtered platelets = experiment: In vitro inhibition of thrombin-induced gel-filtered platelet aggregation; type: cell-based; conditions: Platelet; human gel-filtered platelets; agonist thrombin 50 μL of 1 unit/mL; read-out: Thrmb IC50 (Thrombin-induced aggregation of gel-filtered platelets)
Protocol: In Vitro Inhibition of Thrombin-Induced Gel-Filtered Platelet Aggregation Assay
The percentage of platelet aggregation is calculated as an increase in light transmission of compound-treated platelet concentrate vs. control-treated platelet concentrate. Human blood is obtained from drug free, normal donors in tubes containing 0.13M sodium citrate. Platelet rich plasma (PRP) is collected by centrifugation of whole blood at 200×g for 10 min at 25° C. The PRP (5 mL) is gel filtered through Sepharose 2B (bed volume 50 mL), and the platelet count is adjusted to 2×10^7 platelets per sample. The following constituents are added to a siliconized cuvette: concentrated platelet filtrate and Tyrode's buffer (0.14M NaCl, 0.0027M KCl, 0.012M NaHCO3, 0.76 mM Na2HPO4, 0.0055M glucose, 2 mg/mL BSA and 5.0 mM HEPES @ pH 7.4) in an amount equal to 350 μL 50 μL of 20 mM calcium and 50 μL of the test compound. Aggregation is monitored in a BIODATA aggregometer for the 3 min following the addition of agonist (thrombin 50 μL of 1 unit/mL).
as §1

Structure (SMILES)	IC50 [1] [µM]	IC50 (gel-filtered platelets) [µM]
NC(N)=NCCC[C@H](NC(=O)[C@H](CCc1ccccc1)NC(=O)Nc1ccc2c(CN3CCCC3)cn(Cc3ccc(F)cc3)c2c1)C(=O)NCc1ccccc1 [Compound 27]	14.6	27.3
CCCN(CCC)Cc1cn(Cc2c(Cl)cccc2Cl)c2cc(NC(=O)N[C@@H](Cc3ccc(OC)cc3)C(=O)N[C@@H](CCCNC(=N)N)C(=O)NCc3ccccc3)ccc12 [Compound 41]	10.4	4.8
NCCNC(=O)[C@@H](Cc1cccs1)NC(=O)[C@@H](Cc1ccc(Cl)cc1)NC(=O)c1ccc2c(CN3CCCC3)cn(Cc3c(Cl)cccc3Cl)c2c1 [Compound 178]	9.9	40.7
C=CCN(C)Cc1cn(Cc2c(Cl)cccc2Cl)c2cc(NC(=O)N[C@@H](Cc3cccc(F)c3)C(=O)N[C@@H](CCCN)C(=O)NC3Cc4ccccc4C3)ccc12 [Compound 97]	1.7	18.8
N=C(N)NCCC[C@H](NC(=O)[C@H](Cc1cccc(F)c1)NC(=O)Nc1ccc2c(CN3CCCC3)cn(Cc3c(Cl)cccc3Cl)c2c1)C(=O)NCc1ccc(S(N)(=O)=O)cc1 [Compound 92]	1	1.3
COC(=O)c1ccc(Cn2cc(CN3CCCCC3)c3ccc(NC(=O)N[C@@H](Cc4ccc(OC)cc4)C(=O)N[C@@H](CCCN=C(N)N)C(=O)NCC4CCCCC4)cc32)cc1 [Compound 10]	4.8	> 10
N=C(N)NCCC[C@H](NC(=O)[C@H](Cc1ccc(F)c(F)c1)NC(=O)Nc1ccc2c(CN3CCCC3)cn(Cc3c(Cl)cccc3Cl)c2c1)C(=O)NCc1ccncc1 [Compound 62]	0.03	1.26
NCCC[C@H](NC(=O)[C@H](Cc1ccc(F)c(F)c1)NC(=O)Nc1ccc2c(CN3CCCC3)cn(Cc3c(Cl)cccc3Cl)c2c1)C(=O)NCc1ccccn1 [Compound 117]	1	4.1
COc1ccc(C[C@H](NC(=O)Nc2ccc3c(CN(C)CCCN(C)C)cn(Cc4ccc(F)cc4)c3c2)C(=O)N[C@@H](CCCNC(=N)N)C(=O)NCc2ccccc2)cc1 [Compound 32]	7.3	48.6
COc1ccc(C[C@H](NC(=O)Nc2ccc3c(CN4CCCC4)cn(Cc4ccc(S(C)(=O)=O)cc4)c3c2)C(=O)N[C@@H](CCCNC(=N)N)C(=O)NCc2ccccc2)cc1 [Compound 12]	15.9	43.2
N=C(N)NCCC[C@H](NC(=O)[C@H](Cc1ccc(Br)cc1)NC(=O)Nc1ccc2c(CN3CCCCC3)cn(Cc3c(Cl)cccc3Cl)c2c1)C(=O)NCc1ccccc1 [Compound 63]	0.13	0.7
CC(=O)NCCCC[C@H](NC(=O)[C@H](Cc1ccc(F)c(F)c1)NC(=O)Nc1ccc2c(CN3CCCC3)cn(Cc3c(Cl)cccc3Cl)c2c1)C(=O)NCc1ccccc1 [Compound 71]	3	0.55
CC(=N)NCCNC(=O)[C@H](CCNC(C)=N)NC(=O)[C@H](Cc1ccc(F)c(F)c1)NC(=O)Nc1ccc2c(CN3CCCC3)cn(Cc3c(Cl)cccc3Cl)c2c1 [Compound 140]	0.12	0.74
NCCC[C@H](NC(=O)[C@H](Cc1ccc(F)c(F)c1)NC(=O)Nc1ccc2c(CN3CCCC3)cn(Cc3c(Cl)cccc3Cl)c2c1)C(=O)Nc1ccccc1 [Compound 127]	2.4	0.93
COc1ccc(CNC(=O)[C@H](CCCNC(=N)N)NC(=O)[C@H](Cc2ccc(F)c(F)c2)NC(=O)Nc2ccc3c(CN4CCCC4)cn(Cc4c(Cl)cccc4Cl)c3c2)cc1 [Compound 61]	0.3	1.4
NCC[C@H](NC(=O)[C@H](CCc1ccccc1)NC(=O)Nc1ccc2c(CN3CCCC3)cn(Cc3c(Cl)cccc3Cl)c2c1)C(=O)NCc1ccccc1 [Compound 128]	3.4	18.8

Structure (SMILES)	IC50 [1] [µM]	IC50 (gel-filtered platelets) [µM]
COc1ccc(C[C@H](NC(=O)Nc2ccc3c(CN4CCCC4)cn(Cc4ccc(F)cc4)c3c2)C(=O)N[C@@H](CCCNC(=N)N)C(=O)NCCCc2ccccc2)cc1 [Compound 4]	1.3	14.7
N=C(N)NCCC[C@H](NC(=O)[C@H](Cc1cscn1)NC(=O)Nc1ccc2c(CN3CCCC3)cn(Cc3c(Cl)cccc3Cl)c2c1)C(=O)NCc1ccccc1 [Compound 53]	8.8	1
COc1ccc(C[C@H](NC(=O)Nc2ccc3c(CN4CCCC4)cn(Cc4ccc(C(F)(F)F)cc4)c3c2)C(=O)N[C@@H](CCCNC(=N)N)C(=O)NCc2ccccc2)cc1 [Compound 18]	3.7	14
NCC[C@H](NC(=O)[C@H](Cc1ccc(F)c(F)c1)NC(=O)Nc1ccc2c(CN3CCCC3)cn(Cc3c(Cl)cccc3Cl)c2c1)C(=O)NCCN1CCCC1 [Compound 141]	0.07	0.2
COC[C@H]1CCCN1Cc1cn(Cc2c(Cl)cccc2Cl)c2cc(NC(=O)N[C@@H](Cc3ccc(Cl)cc3)C(=O)N[C@@H](CCCNC(=N)N)C(=O)NCc3ccccc3)ccc12 [Compound 87]	0.28	1.3
N=C(N)NCCC[C@H](NC(=O)[C@H](Cc1cccc(F)c1)NC(=O)Nc1ccc2c(CN3CCCC3)cn(Cc3c(Cl)cccc3Cl)c2c1)C(=O)NCc1ccccc1 [Compound 47]	1.2	0.88
CC(=N)NCCNC(=O)[C@H](Cc1ccncc1)NC(=O)[C@H](Cc1ccc(Cl)cc1)NC(=O)Nc1ccc2c(CN3CCCC3)cn(Cc3c(Cl)cccc3Cl)c2c1 [Compound 139]	1	0.33
NCC[C@H](NC(=O)[C@H](Cc1ccc(Cl)cc1)NC(=O)Nc1ccc2c(CN3CCCC3)cn(Cc3c(Cl)cccc3Cl)c2c1)C(=O)NCc1ccccc1 [Compound 78]	1.5	1.3
NC(N)=NCCC[C@H](NC(=O)[C@H](Cc1cccc(F)c1)NC(=O)Nc1ccc2c(CN3CCC(=O)CC3)cn(Cc3c(Cl)cccc3Cl)c2c1)C(=O)NCc1ccccc1 [Compound 88]	1.7	12.6
N=C(N)NCCC[C@H](NC(=O)[C@H](Cc1ccc(F)c(F)c1)NC(=O)Nc1ccc2c(CN3CCCC3)cn(Cc3c(Cl)cccc3Cl)c2c1)C(=O)NCc1ccc(F)cc1 [Compound 59]	0.14	0.88
CCCCN(CCCC)Cc1cn(Cc2ccccc2C)c2cc(NC(=O)N[C@@H](Cc3cc(F)cc(F)c3)C(=O)N[C@@H](CCCNC(=N)N)C(=O)NCc3ccccc3)ccc12 [Compound 58]	1.5	> 10
CCOC(=O)N1CCC(NC(=O)[C@H](CCN)NC(=O)[C@H](Cc2ccc(F)c(F)c2)NC(=O)Nc2ccc3c(CN4CCCC4)cn(Cc4c(Cl)cccc4Cl)c3c2)CC1 [Compound 144]	0.07	0.32
COc1ccc(C[C@H](NC(=O)Nc2ccc3c(CN4CCCC4)cn(Cc4cccc(OC)c4)c3c2)C(=O)N[C@@H](CCCNC(=N)N)C(=O)NCc2ccccc2)cc1 [Compound 16]	11.5	25.8
CCN(CC)Cc1cn(Cc2ccccc2C)c2cc(NC(=O)N[C@@H](Cc3ccc(N)cc3)C(=O)N[C@@H](CCCNC(=N)N)C(=O)NCc3ccccc3)ccc12 [Compound 35]	13.1	13
NCCNC(=O)[C@H](Cc1ccncc1)NC(=O)[C@H](Cc1ccc(F)c(F)c1)NC(=O)c1ccc2c(CN3CCCC3)cn(Cc3c(Cl)cccc3Cl)c2c1 [Compound 175, L-Alaninamide, N-[[1-[(2,6-dichlorophenyl)methyl]-3-(1-pyrrolidinylmethyl)-1H-indol-6-yl]carbonyl]-3,4-difluoro-L-phenylalanyl-N-(2-aminoethyl)-3-(4-pyridinyl)-]	0.09	1.6

Source: patent US7183252B2, “Indole peptidomimetics as thrombin receptor antagonists” (Ortho-McNeil Pharmaceutical, Inc., priority 1999, dated 2007)
